target: Substance-P receptor (Homo sapiens, UniProt P25103); test: Tested for the binding affinity against neurokinin NK1 receptor
Sequence (P25103 whole entry): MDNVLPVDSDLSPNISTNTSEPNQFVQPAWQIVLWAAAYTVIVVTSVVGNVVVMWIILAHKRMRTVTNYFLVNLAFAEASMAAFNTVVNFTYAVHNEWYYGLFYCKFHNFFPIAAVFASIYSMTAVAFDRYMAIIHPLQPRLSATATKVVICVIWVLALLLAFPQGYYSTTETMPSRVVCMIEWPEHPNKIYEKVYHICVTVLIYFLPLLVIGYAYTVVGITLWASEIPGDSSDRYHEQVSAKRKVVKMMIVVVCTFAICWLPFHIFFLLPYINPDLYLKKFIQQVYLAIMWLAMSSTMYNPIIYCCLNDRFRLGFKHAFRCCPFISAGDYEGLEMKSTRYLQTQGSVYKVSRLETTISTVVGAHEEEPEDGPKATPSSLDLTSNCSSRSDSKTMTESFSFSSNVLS

SMILES | IC50 [µM]
Cc1cc(C)cc(/C(F)=C2/CC[C@@H](NC(=O)c3ccnc4ccccc34)C[C@@H]2Cc2ccccc2)c1 | > 10
Cc1cc(C)cc(/C(F)=C2\CC[C@H](NC(=O)c3ccnc4ccccc34)C[C@H]2Cc2ccccc2)c1 | > 10
Cc1cc(C)cc(C(=O)N2CC[C@H](NC(=O)c3ccnc4ccccc34)C[C@H]2Cc2ccccc2)c1 | 0.015
Cc1cc(C)cc(/C(F)=C2/CCC(NC(=O)c3ccnc4ccccc34)CC2Cc2ccccc2)c1 (racemic) | 0.71

The next lines start with the values.

IC50 [µM] | SMILES
0.38 | Cc1cc(C)cc(/C(F)=C2/CC[C@H](NC(=O)c3ccnc4ccccc34)C[C@H]2Cc2ccccc2)c1
0.62 | Cc1cc(C)cc(/C(F)=C2\CCC(NC(=O)c3ccnc4ccccc34)CC2Cc2ccccc2)c1 (racemic)
0.27 | Cc1cc(C)cc(/C(F)=C2\CC[C@@H](NC(=O)c3ccnc4ccccc34)C[C@@H]2Cc2ccccc2)c1

— ChEMBL document CHEMBL1130293, “Studies on the active conformation of the NK1 antagonist CGP 49823. Part 21. Fluoro-olefin analogs of tertiary amide rotamers” (Bioorg Med Chem Lett, 1997)
